# Measurements published in patent publication US20200010857A1 (priority 2016, published 2020).
# Like-named read-outs stand apart in the source and are kept apart here.
# How the values were obtained:
# [1] = tested on: Rhodococcus aetherivorans BCP1; assay: Growth of BCP1 in LB supplied with Na2SeO3 (spot plate count); assay type: cell-based; details: unconditioned cells
# Description: (§1) Rhodococcus aetherivorans BCP1 strain (DSM 44980) was pre-cultured in 250 mL Erlenmeyer Baffled Flask for 48 h in 25 mL of Luria-Bertani medium (indicated as LB) [containing (g/L) NaCl, 10; Yeast Extract, 5; Tryptone, 10]. When necessary the medium was solidified by adding 15 g/L of Agar. BCP1 cells were then inoculated (1% v/v) and grown for 120 h in 50 mL of LB broth to which was added either 0.5 mM or 2 mM of Na2SeO3. This first bacterial growth is here defined as unconditioned. After the unconditioned growth, BCP1 cells were re-inoculated (1% v/v) and cultured for other 120 h in 50 mL of fresh LB medium supplied with a new addition of either 0.5 or 2 mM of Na2SeO3. Here we refer to this bacterial growth as conditioned. Unconditioned or conditioned cultures were incubated aerobically at 30° C. with shaking (150 rpm). Bacterial growth rate was evaluated by spot plate count method every 24 h over the incubation time. LB agar plates containing the spotted cells were recovered for 48 h at 30° C. The number of growing cells is reported as mean the Colony forming Unit (log10[CFU/mL]) with standard deviation. All the reagents were purchased from Sigma-Aldrich®.
# [2] = tested on: Rhodococcus aetherivorans BCP1; assay: Tolerance of BCP1 towards SeO3^2− oxyanions (MIC^Se); assay type: cell-based
# Description: as §1
# The BCP1 strain has been exposed to different concentrations of Na2SeO3, ranging from 0.5 to 200 mM as initial concentration to evaluate its tolerance towards these toxic oxyanions. Briefly, after 24 h of exposure to each concentration of Na2SeO3 tested, BCP1 cells were serially diluted in sterile saline solution (NaCl 0.9% w/v) and the number of viable cells were determined by spot plates count on LB agar recovery plates. The assay was conducted in triplicate and the viable cell numbers are indicated as the average of the log10[CFU/mL] with standard deviation.
# Paenibacillus TeW = details: K2TeO3 in rich medium, aerobic; Chien et al. (2009); cited from earlier work
# Bacillus sp. STG-83 = details: K2TeO3 in rich medium, aerobic; Soudi et al.(2009); cited from earlier work
# Salinicoccus sp. QW6 = details: K2TeO3 in rich medium, aerobic; Amoozegar et al. (2008); cited from earlier work
# [3] = tested on: Rhodococcus aetherivorans BCP1; assay: Minimal Inhibitory Concentration (MIC) of tellurite, kill curve; assay type: cell-based; details: for log reduction of BCP1 viable cells: 24 h
# Description: The strain Rhodococcus aetherivorans BCP1 (DSM 44980) was pre-cultured in 250 mL Erlenmeyer Baffled Flask for 2 days, containing 25 mL of Luria-Bertani medium (here indicated as LB) [composed of (g/L) NaCl, 10; Yeast Extract, 5; Tryptone, 10]. When necessary, the medium was solidified by adding 15 g/L of Agar. BCP1 cells were then inoculated (1% v/v) and grown for 5 days in 50 mL of LB medium supplied with either 100 (0.4 mM) or 500 (2 mM) μg/mL of K2TeO3. Here we refer to this first bacterial growth as unconditioned. After this growth step, BCP1 cells were re-inoculated (1% v/v) and cultured for other 5 days in 50 mL of fresh LB medium and 100 or 500 μg/mL of K2TeO3. This secondary bacterial growth is here defined as conditioned. Each culture was incubated aerobically at 30° C. with shaking (150 rpm). In order to evaluate the bacterial growth rate, every 24 h an aliquot (100 μL) of BCP1 cells was collected from each culture and serially diluted in sterile saline solution (NaCl 0.9% w/v). The cells were recovered on LB agar plates for 48 h at 30° C. The number of growing cells is reported as average of the Colony Forming Unit per milliliter (CFU mL^−1) counted for each biological trial (n=3) with standard deviation. All the reagents were purchased from Sigma-Aldrich®.
# After 24 h of incubation the number of viable cells was determined by spot plates count on LB agar recovery plates. The assay was conducted in triplicate and the data are reported as average of the CFU mL-1 counted with standard deviation. The established MIC and corresponding kill curve was used to choose the best concentration of K2TeO3 to use for nano-material production.
# Lysinibacillus sp. ZYM-1 = details: K2TeO3 in rich medium, aerobic; Zao et al. (2016); cited from earlier work
# [4] = tested on: Corynebacterium difteriaes; details: K2TeO3 in rich medium, aerobic; Tucker et al. (1961); cited from earlier work
# bacterial cells = details: cited from earlier work
# Bacillus sp. BZ = details: K2TeO3 in rich medium, aerobic; Zare et al. (2012); cited from earlier work
smiles,measurement,setting,value
"O=[Se](O)O [Na2SeO3, sodium selenite]",number of live cells counted,"[1]; 0.5 mM Na2SeO3, 72 h",6.33·10^6 CFU/mL
same,number of viable cells,"[1]; 0.5 mM Na2SeO3, 120 h",1.2·10^6 CFU/mL
same,number of growing cells,"[1]; 2 mM Na2SeO3, 72 h",4.24·10^6 CFU/mL
same,number of growing cells,"[1]; 2 mM Na2SeO3, 120 h",9.83·10^5 CFU/mL
same,log reduction in number of viable cells,"[2]; 0.5 mM versus 200 mM Na2SeO3, 24 h",2 log
same,number of viable cells,[2]; 24 h exposure to 0.5 mM Na2SeO3,2.00·10^6 CFU/mL
same,number of viable cells,"[2]; 24 h exposure to 0.5 mM Na2SeO3, listed as SeO3^2−",2·10^6 CFU/mL
same,number of viable cells,[2]; 24 h exposure to 2 mM SeO3^2−,1.72·10^6 CFU/mL
same,number of viable cells,[2]; 24 h exposure to 200 mM Na2SeO3,6.17·10^4 CFU/mL
same,"BCP1 tolerance, times higher than MIC^Se of Streptomyces microflavus FSHJ31",[2]; ratio of MIC^Se values,80 times
same,"BCP1 tolerance, times higher than MIC^Se of Streptomyces sp. ES2-5",[2]; ratio of MIC^Se values,4 times
"O=[Te]([O-])[O-].[K+].[K+] [K2TeO3, potassium tellurite]",MIC^Te,Paenibacillus TeW,1000 µM
same,MIC^Te,Bacillus sp. STG-83,1250 µM
same,MIC^Te,Salinicoccus sp. QW6,12000 µM
same,number of BCP1 viable cells,[3]; 24 h exposure to 100 μg/mL K2TeO3,5.00·10^5 CFU/mL
same,number of BCP1 viable cells,[3]; 24 h exposure to 500 μg/mL K2TeO3,1.00·10^5 CFU/mL
same,decrease of number of BCP1 viable cells,[3]; 24 h exposure to 100 or 500 μg/mL K2TeO3,less than 1 log
same,Minimal Inhibitory Concentration (MIC) of TeO3^2−,"[3]; 24 h exposure to K2TeO3 in LB, aerobic",2800 mg/L
same,Minimal Inhibitory Concentration (MIC^Te),"[3]; 24 h exposure to K2TeO3 in rich medium (LB), aerobic",11200 µM
same,log reduction of BCP1 viable cells,[3]; K2TeO3 varied from 100 to 1000 μg/mL (0.4-4 mM),1 log
same,log reduction of BCP1 viable cells,[3]; K2TeO3 varied from 100 to 2000 μg/mL (0.4-8 mM),2 log
same,log reduction of viable cells vs number at time of inoculation,"[3]; at the MIC, 2800 μg/mL K2TeO3, 24 h",3 log
same,BCP1 strain tolerance relative to MIC^Te of Corynebacterium difteriaes,[3]; ratio of MIC^Te values,ten times higher
same,MIC^Te,Lysinibacillus sp. ZYM-1,2000 µM
same,MIC^Te,[4],1000 µM
same,MIC^Te,bacterial cells; aerobic growth,2 mg/L
same,MIC^Te,bacterial cells; anaerobic growth,250 mg/L
same,MIC^Te,Bacillus sp. BZ,800 µM
